Assay results published in patent US20120083522A1, “MODULATION OF INFLAMMATORY RESPONSES BY FACTOR XI” (Isis Pharmaceuitcals, inc., priority 2009, published 2012).
In the oligonucleotide strings, read from the 5' end, every base follows the letter of its sugar. An asterisk marks phosphorothioate; unmarked linkages are phosphodiester. Other units and linkages are bracketed, terminal groups are in braces. A string of capitals states the bases alone. e = 2'-O-(2-methoxyethyl) (MOE); [5mC] = 5-methylcytosine; d = 2'-deoxy (DNA)

Experiments:
[1] = Tolerability in CD1 mice: body and organ weight (Example 25); assay type: in vivo; conditions: 50 mg/kg s.c. twice per week for 6 weeks
[2] = system: soluble CD40 ligand (CD40L); assay: Colitis Study E: CD40L plasma levels; assay type: in vivo, Swiss Webb mice; conditions: for CD40L plasma levels: DSS-treated mice, day 7, 40 mpk
Description: (§1) Two groups 8 Swiss Webb mice were dosed with 40 mg/kg of ISIS 404071 injected subcutaneously twice a week for 3 weeks. Two control groups of 8 Swiss Webb mice were dosed with PBS subcutaneously twice a week for 3 weeks. Both the ASO treated groups and one of the control groups were then given 4% DSS in distilled water for 7 days ad libitum. One of the ASO and DSS treated groups was also given intravenous injections of 20 μg of recombinant human Factor XI protein (Haematologic Technologies Inc.) for 7 consecutive days, starting the day before DSS treatment. Mice were sacrificed at the end of the study on day 7 after DSS was administered.
Plasma levels of soluble CD40 ligand (CD40L) are known to be elevated in cases of inflammatory bowel disease (Ludwiczek, O. et al., Int. J. Colorectal Disease. 2003. 18: 142-147) and may be considered a marker of intestinal inflammation. The effect of antisense inhibition of Factor XI on CD40L levels in the plasma was evaluated at the end of the study on day 7 after DSS was administered and the results are presented in Table 39. CD40L levels in plasma were measured by commercially available ELISA kits (Bender MedSystems, Vienna, Austria, eBioscience, San Diego, Calif.) according to the manufacture's protocols.

[3] = system: DSS-induced colitis model; assay: Colitis Study A: DSS-induced colitis, body weight and colon length (Example 12); assay type: in vivo, Swiss Webb mice; conditions: for colon length (in words): FIG. 7C
Description: The effect of antisense oligonucleotide inhibition of Factor XI and its role in ameliorating colitis was evaluated in a dextran sulfate sodium (DSS)-induced colitis model. Administration of DSS to animals is a well known method to induce […] and has been previously described by Okayasu et al. (Gastroenterology, 1990, 98:694-702), Cooper et al. (Lab Invest, 1993, 69:238-249) and Dieleman et al. (Clin Exp Immunol, 1998, 114:385-391).
In groups of 8 Swiss Webb mice, 20 mg/kg of ISIS 404071 or ISIS 403102 were injected subcutaneously twice a week for 3 weeks. Two control groups of 8 mice each were injected with PBS twice a week for 3 weeks. After the oligonucleotide treatments, 4% DSS in water was administered ad libitum for 6 days to the experimental groups and one PBS control group.
Mice in all groups were weighed at day 0. Mice were sacrificed at the end of the study on day 7 after DSS was administered and their body weights and colon lengths were measured. Results are presented in Table 24 (expressed as a percentage of the PBS control) and FIG. 7.
Colon length was assessed in the DSS-induced colitis mice.

[4] = system: IFN-γ, IL-10, IL-12, IL-1β, IL-2, IL-4, IL-5, TNF-α, KC; assay: Colitis Study E: cytokine levels in colon (multiplex ELISA); assay type: in vivo, Swiss Webb mice; conditions: for IFN-γ level in the colon / IL-1β level in the colon / IL-2 level in the colon / IL-4 level in the colon / IL-5 level in the colon / IL-10 level in the colon / IL-12 level in the colon / KC level in the colon / TNF-α level in the colon: DSS-treated mice
Description: as §1
The cytokine levels of IFN-γ, IL-10, IL-12, IL-1β, IL-2, IL-4, IL-5, TNF-α, and keratinocyte chemoattractant (KC) were measured in the colon of the mice groups at the end of the study on day 7 after DSS was administered. Colons were homogenized on ice in PBS supplemented with protease inhibitors (Sigma, St. Louis, Mo.) and extracted with rotation at 4° C. for 1 hour. After removal of insoluble material by centrifugation, colon homogenates were used for the cytokine analysis by multiplex ELISA (Mouse TH1/TH2 9-Plex Ultra-Sensitive Kit, Meso Scale Discovery, Gaithersburg, Md.) according to the manufacture's protocol. Cytokine levels in colon extracts were normalized to the protein concentration measured by protein assay kit (BioRad, Hercules, Calif.). The levels of pro-inflammatory cytokines, IFN-γ, IL-1β, IL-10, IL-2, IL-5, TNF-α, and KC were elevated by DSS administration, and were decreased by treatment with ISIS 404071.

[5] = Colitis Study F: plasma ALT, AST, BUN, CREAT, CHOL, TBIL; assay type: in vivo, Swiss Webb mice; conditions: DSS-treated mice, 50 mg/kg s.c. twice a week for 3 weeks
Description: In a first group of 8 Swiss Webb mice, 50 mg/kg of ISIS 404071 was injected subcutaneously twice a week for 3 weeks. Two control groups of 8 mice each were injected with PBS twice a week for 3 weeks. After the oligonucleotide treatment, 4% DSS in water was administered ad libitum for 7 days to the experimental group and one PBS control group. Mice were sacrificed at the end of the study on day 7 after DSS was administered.
Plasma levels of aminotransferases (ALT and AST), blood urea nitrogen (BUN), creatinine (CREAT), cholesterol (CHOL) and total bilirubin (TBIL) were measured after treatment and are shown in Table 47.

[6] = Arthritis Study B: liver and spleen weight, ALT, AST; assay type: in vivo; conditions: collagen-treated DBA/1J mice, 20 mg/kg s.c. twice a week for ten weeks
Description: In a group of 20 DBA/1J mice, 20 mg/kg of ISIS 404071 were injected subcutaneously twice a week for ten weeks. In a second group of 20 DBA/1J mice, 20 mg/kg of ISIS 404057 were injected subcutaneously twice a week for ten weeks. In a third control group of 20 DBA/1J mice, 20 mg/kg of ISIS 421208 were injected subcutaneously twice a week for ten weeks. Two control groups of 20 mice each were injected with PBS twice a week for ten weeks.
Mice in all groups were examined daily after day 30 after the first collagen injection for the visual appearance of arthritis in peripheral joints. The results in Table 22 are expressed as percent change compared to the PBS control except for the liver and spleen weight.

[7] = DSS-induced colitis, day 7, 20 mg/kg s.c. twice a week for 3 weeks, expressed as a percentage of the PBS control

Q: With “ISIS 416850: gapmer of Table 8 (antisense eT*eG*e[5mC]*eA*e[5mC]*dA*dG*dT*dT*dT*d[5mC]*dT*dG*dG*d[5mC]*eA*eG*eG*e[5mC]*e[5mC])” as the substance, how does the “Body weight (increase over PBS control weight before start of treatment)” value [1] read?
A: Its value is 11 g.

Q: And the “Kidney weight as percentage of body weight” value ([1]; end of study)?
A: Its value is 1.5%.

Q: And the “Liver weight as percentage of body weight” value ([1]; end of study)?
A: The value was 6%.

Q: And the “Spleen weight as percentage of body weight” value ([1]; end of study)?
A: The value was 0.4%.

Q: With “TGGTAATCCACTTTCAGAGG (eT*eG*eG*eT*eA*dA*dT*d[5mC]*d[5mC]*dA*d[5mC]*dT*dT*dT*d[5mC]*eA*eG*eA*eG*eG) [ISIS 404071, 5-10-5 MOE gapmer targeting murine Factor XI, target start site 869]” as the substance, how does the “CD40L levels in plasma (in words)” value ([2]; Colitis Study E, day 7) read?
A: The value was “decreased”.

Q: And the CD40L plasma levels ([2]; no human recombinant FXI)?
A: The CD40L plasma levels was 1.5 ng/mL.

Q: What about the CD40L plasma levels ([2]; plus human recombinant FXI 20 ug/mouse/day) of the same substance?
A: The CD40L plasma levels was 1.6 ng/mL.

Q: And the “body weight (in words)” value ([3]; Colitis Study A, FIG. 7A/7B)?
A: Its value is “did not have any significant change in body weight”.

Q: And the “colon length (in words)” value ([3]; Colitis Study A, listed as Factor XI ASO)?
A: Its value is “had no significant change in colon length”.

Q: What about the “colon length (in words)” value ([3]; Colitis Study A, listed as Factor XI oligonucleotide) of the same substance?
A: Its value is “decreased the amount of colon shortening”.

Q: What about the Body weight change [3, 7] of the same substance?
A: Its Body weight change is −2%.

Q: And the Colon length change [3, 7]?
A: Its Colon length change is −13%.

Q: And the “pro-inflammatory cytokine levels in colon: IFN-γ, IL-1β, IL-10, IL-2, IL-5, TNF-α, KC (in words)” value ([4]; Colitis Study E, day 7)?
A: Its value is “decreased”.

Q: What about the “IFN-γ level in the colon” value ([4]; day 7, no rFXI) of the same substance?
A: The value was 1.10 pg/mg.

Q: What about the “IL-1β level in the colon” value ([4]; day 7, no rFXI) of the same substance?
A: The value was 50 pg/mg.

Q: And the “IL-2 level in the colon” value ([4]; day 7, no rFXI)?
A: Its value is 0.11 pg/mg.

Q: And the “IL-4 level in the colon” value ([4]; day 7, no rFXI)?
A: Its value is 0.012 pg/mg.

Q: And the “IL-5 level in the colon” value ([4]; day 7, no rFXI)?
A: The value was 0.04 pg/mg.

Q: And the “IL-10 level in the colon” value ([4]; day 7, no rFXI)?
A: Its value is 4.7 pg/mg.

Q: What about the “IL-12 level in the colon” value ([4]; day 7, no rFXI) of the same substance?
A: The value was 64 pg/mg.

Q: What about the “KC level in the colon” value ([4]; day 7, no rFXI) of the same substance?
A: Its value is 27 pg/mg.

Q: And the “TNF-α level in the colon” value ([4]; day 7, no rFXI)?
A: Its value is 0.24 pg/mg.

Q: And the “IFN-γ level in the colon” value ([4]; day 7, plus rFXI 20 ug/day)?
A: The value was 4.51 pg/mg.

Q: And the “IL-1β level in the colon” value ([4]; day 7, plus rFXI 20 ug/day)?
A: Its value is 103 pg/mg.

Q: And the “IL-2 level in the colon” value ([4]; day 7, plus rFXI 20 ug/day)?
A: The value was 0.28 pg/mg.

Q: And the “IL-4 level in the colon” value ([4]; day 7, plus rFXI 20 ug/day)?
A: The value was 0.004 pg/mg.

Q: What about the “IL-5 level in the colon” value ([4]; day 7, plus rFXI 20 ug/day) of the same substance?
A: Its value is 0.17 pg/mg.

Q: What about the “IL-10 level in the colon” value ([4]; day 7, plus rFXI 20 ug/day) of the same substance?
A: Its value is 5.8 pg/mg.

Q: What about the “IL-12 level in the colon” value ([4]; day 7, plus rFXI 20 ug/day) of the same substance?
A: The value was 96 pg/mg.

Q: And the “KC level in the colon” value ([4]; day 7, plus rFXI 20 ug/day)?
A: The value was 62 pg/mg.

Q: And the “TNF-α level in the colon” value ([4]; day 7, plus rFXI 20 ug/day)?
A: The value was 0.91 pg/mg.

Q: And the “Plasma ALT” value [5]?
A: The value was 133.6 U/L.

Q: What about the “Plasma AST” value [5] of the same substance?
A: Its value is 339.3 U/L.

Q: And the “Plasma BUN” value [5]?
A: The value was 29.5 mg/dL.

Q: And the “Plasma CHOL” value [5]?
A: The value was 170.3 mg/dL.

Q: And the “Plasma TBIL” value [5]?
A: The value was 0.7 mg/dL.

Q: What about the “Liver ALT” value [6] of the same substance?
A: The value was 56.6.

Q: And the “Liver AST” value [6]?
A: Its value is 86.75.

Q: And the “Liver Weight as a % of Body Weight” value [6]?
A: The value was 6.089%.

Q: And the “Spleen Weight as a % of Body Weight” value [6]?
A: The value was 0.759 % of Body Weight.
